Assay results published in the supplement of paper PMC10307832.

Experiments:
Test in all cases: relative viability (nuclei count vs DMSO), 5 days (fraction); higher = more cells survive
Adavosertib + Dasatinib = compound: C=CCn1c(=O)c2cnc(Nc3ccc(N4CCN(C)CC4)cc3)nc2n1-c1cccc(C(C)(C)O)n1 [Adavosertib] + Cc1nc(Nc2ncc(C(=O)Nc3c(C)cccc3Cl)s2)cc(N2CCN(CCO)CC2)n1 [Dasatinib] (partner 0.075 µM)
How it was run: (§1)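 Lung cancer cell lines in 1536-well plates were dosed by pin tool the day after seeding, either with one drug alone or with a fixed anchor-drug dose plus five library-drug doses (not always all listed) in √10 steps. After 5 days, cells were fixed and their nuclei stained in one step (final 0.05% Triton X-100, 1% formaldehyde, 1 ug/ml Hoechst), then counted on 4× images. Relative viability is the nuclei count in treated wells divided by that in vehicle wells. Values are medians of duplicate plates.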

Nelarabine + OSI-027 = compound: COc1nc(N)nc2c1ncn2[C@@H]1O[C@H](CO)[C@@H](O)[C@@H]1O [Nelarabine] + COc1cccc2cc(-c3nc([C@H]4CC[C@H](C(=O)O)CC4)n4ncnc(N)c34)[nH]c12 [OSI-027] (partner 0.5 µM)
How it was run: as §1

Nelarabine + Alpelisib = compound: COc1nc(N)nc2c1ncn2[C@@H]1O[C@H](CO)[C@@H](O)[C@@H]1O [Nelarabine] + Cc1nc(NC(=O)N2CCC[C@H]2C(N)=O)sc1-c1ccnc(C(C)(C)C(F)(F)F)c1 [Alpelisib] (partner 2 µM)
How it was run: as §1

Nelarabine + Vorinostat = compound: COc1nc(N)nc2c1ncn2[C@@H]1O[C@H](CO)[C@@H](O)[C@@H]1O [Nelarabine] + O=C(CCCCCCC(=O)Nc1ccccc1)NO [Vorinostat] (partner 1 µM)
How it was run: as §1

NCI-H460
relative viability (Adavosertib + Dasatinib; first compound 0.01 µM): 0.477 | relative viability (Adavosertib + Dasatinib; first compound 0.03162 µM): 0.519 | relative viability (Adavosertib + Dasatinib; first compound 0.1 µM): 0.429 | relative viability (Adavosertib + Dasatinib; first compound 0.3162 µM): 0.359 | relative viability (Nelarabine + OSI-027; first compound 0.01 µM): 1.06 | relative viability (Nelarabine + OSI-027; first compound 0.03162 µM): 1.08 | relative viability (Nelarabine + OSI-027; first compound 0.1 µM): 0.971 | relative viability (Nelarabine + OSI-027; first compound 0.3162 µM): 1.08 | relative viability (Nelarabine + OSI-027; first compound 1 µM): 0.79 | relative viability (Nelarabine + Alpelisib; first compound 0.01 µM): 1.03 | relative viability (Nelarabine + Alpelisib; first compound 0.03162 µM): 0.411 | relative viability (Nelarabine + Alpelisib; first compound 0.1 µM): 0.565 | relative viability (Nelarabine + Alpelisib; first compound 0.3162 µM): 0.66 | relative viability (Nelarabine + Alpelisib; first compound 1 µM): 0.371 | relative viability (Nelarabine + Vorinostat; first compound 0.01 µM): 1.42 | relative viability (Nelarabine + Vorinostat; first compound 0.03162 µM): 1.5 | relative viability (Nelarabine + Vorinostat; first compound 0.1 µM): 0.889 | relative viability (Nelarabine + Vorinostat; first compound 0.3162 µM): 1.13 | relative viability (Nelarabine + Vorinostat; first compound 1 µM): 0.923

NCI-H1944
relative viability (Adavosertib + Dasatinib; first compound 0.01 µM): 0.205 | relative viability (Adavosertib + Dasatinib; first compound 0.03162 µM): 0.201 | relative viability (Adavosertib + Dasatinib; first compound 0.1 µM): 0.218 | relative viability (Adavosertib + Dasatinib; first compound 0.3162 µM): 0.199 | relative viability (Nelarabine + OSI-027; first compound 0.01 µM): 0.468 | relative viability (Nelarabine + OSI-027; first compound 0.03162 µM): 0.436 | relative viability (Nelarabine + OSI-027; first compound 0.1 µM): 0.442 | relative viability (Nelarabine + OSI-027; first compound 0.3162 µM): 0.426 | relative viability (Nelarabine + OSI-027; first compound 1 µM): 0.455 | relative viability (Nelarabine + Alpelisib; first compound 0.01 µM): 0.817 | relative viability (Nelarabine + Alpelisib; first compound 0.03162 µM): 0.78 | relative viability (Nelarabine + Alpelisib; first compound 0.1 µM): 0.828 | relative viability (Nelarabine + Alpelisib; first compound 0.3162 µM): 0.814 | relative viability (Nelarabine + Alpelisib; first compound 1 µM): 0.79 | relative viability (Nelarabine + Vorinostat; first compound 0.01 µM): 0.669 | relative viability (Nelarabine + Vorinostat; first compound 0.03162 µM): 0.549 | relative viability (Nelarabine + Vorinostat; first compound 0.1 µM): 0.54 | relative viability (Nelarabine + Vorinostat; first compound 0.3162 µM): 0.559 | relative viability (Nelarabine + Vorinostat; first compound 1 µM): 0.538

NCI-H1437
relative viability (Adavosertib + Dasatinib; first compound 0.01 µM): 0.404 | relative viability (Adavosertib + Dasatinib; first compound 0.03162 µM): 0.323 | relative viability (Adavosertib + Dasatinib; first compound 0.1 µM): 0.375 | relative viability (Adavosertib + Dasatinib; first compound 0.3162 µM): 0.43 | relative viability (Nelarabine + OSI-027; first compound 0.01 µM): 1.04 | relative viability (Nelarabine + OSI-027; first compound 0.03162 µM): 0.859 | relative viability (Nelarabine + OSI-027; first compound 0.1 µM): 0.845 | relative viability (Nelarabine + OSI-027; first compound 0.3162 µM): 0.948 | relative viability (Nelarabine + OSI-027; first compound 1 µM): 0.796 | relative viability (Nelarabine + Alpelisib; first compound 0.01 µM): 1.17 | relative viability (Nelarabine + Alpelisib; first compound 0.03162 µM): 0.918 | relative viability (Nelarabine + Alpelisib; first compound 0.1 µM): 0.945 | relative viability (Nelarabine + Alpelisib; first compound 0.3162 µM): 1.13 | relative viability (Nelarabine + Alpelisib; first compound 1 µM): 1.03 | relative viability (Nelarabine + Vorinostat; first compound 0.01 µM): 0.992 | relative viability (Nelarabine + Vorinostat; first compound 0.03162 µM): 0.946 | relative viability (Nelarabine + Vorinostat; first compound 0.1 µM): 0.831 | relative viability (Nelarabine + Vorinostat; first compound 0.3162 µM): 0.878 | relative viability (Nelarabine + Vorinostat; first compound 1 µM): 0.808

NCI-H2087
relative viability (Adavosertib + Dasatinib; first compound 0.01 µM): 0.901 | relative viability (Adavosertib + Dasatinib; first compound 0.03162 µM): 0.786 | relative viability (Adavosertib + Dasatinib; first compound 0.1 µM): 0.893 | relative viability (Adavosertib + Dasatinib; first compound 0.3162 µM): 0.845 | relative viability (Nelarabine + OSI-027; first compound 0.01 µM): 0.568 | relative viability (Nelarabine + OSI-027; first compound 0.03162 µM): 0.639 | relative viability (Nelarabine + OSI-027; first compound 0.1 µM): 0.489 | relative viability (Nelarabine + OSI-027; first compound 0.3162 µM): 0.676 | relative viability (Nelarabine + OSI-027; first compound 1 µM): 0.517 | relative viability (Nelarabine + Alpelisib; first compound 0.01 µM): 1.19 | relative viability (Nelarabine + Alpelisib; first compound 0.03162 µM): 1.13 | relative viability (Nelarabine + Alpelisib; first compound 0.1 µM): 0.986 | relative viability (Nelarabine + Alpelisib; first compound 0.3162 µM): 0.969 | relative viability (Nelarabine + Alpelisib; first compound 1 µM): 1.07 | relative viability (Nelarabine + Vorinostat; first compound 0.01 µM): 0.674 | relative viability (Nelarabine + Vorinostat; first compound 0.03162 µM): 0.551 | relative viability (Nelarabine + Vorinostat; first compound 0.1 µM): 1.07 | relative viability (Nelarabine + Vorinostat; first compound 0.3162 µM): 0.874 | relative viability (Nelarabine + Vorinostat; first compound 1 µM): 0.898

LU99A
relative viability (Adavosertib + Dasatinib; first compound 0.01 µM): 0.472 | relative viability (Adavosertib + Dasatinib; first compound 0.03162 µM): 0.51 | relative viability (Adavosertib + Dasatinib; first compound 0.1 µM): 0.532 | relative viability (Adavosertib + Dasatinib; first compound 0.3162 µM): 0.355 | relative viability (Nelarabine + OSI-027; first compound 0.01 µM): 0.315 | relative viability (Nelarabine + OSI-027; first compound 0.03162 µM): 0.295 | relative viability (Nelarabine + OSI-027; first compound 0.1 µM): 0.307 | relative viability (Nelarabine + OSI-027; first compound 0.3162 µM): 0.309 | relative viability (Nelarabine + OSI-027; first compound 1 µM): 0.291 | relative viability (Nelarabine + Alpelisib; first compound 0.01 µM): 0.517 | relative viability (Nelarabine + Alpelisib; first compound 0.03162 µM): 0.415 | relative viability (Nelarabine + Alpelisib; first compound 0.1 µM): 0.519 | relative viability (Nelarabine + Alpelisib; first compound 0.3162 µM): 0.476 | relative viability (Nelarabine + Alpelisib; first compound 1 µM): 0.54 | relative viability (Nelarabine + Vorinostat; first compound 0.01 µM): 0.615 | relative viability (Nelarabine + Vorinostat; first compound 0.03162 µM): 0.417 | relative viability (Nelarabine + Vorinostat; first compound 0.1 µM): 0.579 | relative viability (Nelarabine + Vorinostat; first compound 0.3162 µM): 0.467 | relative viability (Nelarabine + Vorinostat; first compound 1 µM): 0.39

NCI-H1993
relative viability (Adavosertib + Dasatinib; first compound 0.01 µM): 0.63 | relative viability (Adavosertib + Dasatinib; first compound 0.03162 µM): 0.503 | relative viability (Adavosertib + Dasatinib; first compound 0.1 µM): 0.719 | relative viability (Adavosertib + Dasatinib; first compound 0.3162 µM): 0.618 | relative viability (Nelarabine + OSI-027; first compound 0.01 µM): 0.596 | relative viability (Nelarabine + OSI-027; first compound 0.03162 µM): 0.502 | relative viability (Nelarabine + OSI-027; first compound 0.1 µM): 0.551 | relative viability (Nelarabine + OSI-027; first compound 0.3162 µM): 0.567 | relative viability (Nelarabine + OSI-027; first compound 1 µM): 0.585 | relative viability (Nelarabine + Alpelisib; first compound 0.01 µM): 0.704 | relative viability (Nelarabine + Alpelisib; first compound 0.03162 µM): 0.736 | relative viability (Nelarabine + Alpelisib; first compound 0.1 µM): 0.756 | relative viability (Nelarabine + Alpelisib; first compound 0.3162 µM): 0.712 | relative viability (Nelarabine + Alpelisib; first compound 1 µM): 0.689 | relative viability (Nelarabine + Vorinostat; first compound 0.01 µM): 0.742 | relative viability (Nelarabine + Vorinostat; first compound 0.03162 µM): 0.728 | relative viability (Nelarabine + Vorinostat; first compound 0.1 µM): 0.736 | relative viability (Nelarabine + Vorinostat; first compound 0.3162 µM): 0.592 | relative viability (Nelarabine + Vorinostat; first compound 1 µM): 0.694

NCI-H2347
relative viability (Adavosertib + Dasatinib; first compound 0.01 µM): 0.378 | relative viability (Adavosertib + Dasatinib; first compound 0.03162 µM): 0.304 | relative viability (Adavosertib + Dasatinib; first compound 0.1 µM): 0.267 | relative viability (Adavosertib + Dasatinib; first compound 0.3162 µM): 0.258 | relative viability (Nelarabine + OSI-027; first compound 0.01 µM): 0.505 | relative viability (Nelarabine + OSI-027; first compound 0.03162 µM): 0.431 | relative viability (Nelarabine + OSI-027; first compound 0.1 µM): 0.409 | relative viability (Nelarabine + OSI-027; first compound 0.3162 µM): 0.389 | relative viability (Nelarabine + OSI-027; first compound 1 µM): 0.369 | relative viability (Nelarabine + Alpelisib; first compound 0.01 µM): 1.01 | relative viability (Nelarabine + Alpelisib; first compound 0.03162 µM): 1.13 | relative viability (Nelarabine + Alpelisib; first compound 0.1 µM): 1.14 | relative viability (Nelarabine + Alpelisib; first compound 0.3162 µM): 1.04 | relative viability (Nelarabine + Alpelisib; first compound 1 µM): 1.14 | relative viability (Nelarabine + Vorinostat; first compound 0.01 µM): 0.584 | relative viability (Nelarabine + Vorinostat; first compound 0.03162 µM): 0.69 | relative viability (Nelarabine + Vorinostat; first compound 0.1 µM): 0.569 | relative viability (Nelarabine + Vorinostat; first compound 0.3162 µM): 0.61 | relative viability (Nelarabine + Vorinostat; first compound 1 µM): 0.455
